From PubChem BioAssay (NCI)
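In this assay, cells in 96-well plates receive the compound at five concentrations for 48 hours. Endpoints are linearly interpolated between the surrounding concentrations. Abbreviation: GI50, concentration required for 50% inhibition of growth. At the TGI there is no net growth.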

Columns and labels:
Experiment in all cases: NCI anticancer screen, dose series, 48 h
HOP-92 NSCLC = tested on: HOP-92 NSCLC
MDA-MB-231 breast = tested on: MDA-MB-231 breast
LOX IMVI melanoma = tested on: LOX IMVI melanoma
SF-539 CNS = tested on: SF-539 CNS
RPMI-8226 leukemia = tested on: RPMI-8226 leukemia
SR leukemia = tested on: SR leukemia
UO-31 renal = tested on: UO-31 renal
SW-620 colon = tested on: SW-620 colon
M14 melanoma = tested on: M14 melanoma
KM12 colon = tested on: KM12 colon
NCI/ADR-RES ovarian = tested on: NCI/ADR-RES ovarian
ACHN renal = tested on: ACHN renal
HS 578T breast = tested on: HS 578T breast
SK-OV-3 ovarian = tested on: SK-OV-3 ovarian
UACC-62 melanoma = tested on: UACC-62 melanoma
A498 renal = tested on: A498 renal
BT-549 breast = tested on: BT-549 breast
HCT-15 colon = tested on: HCT-15 colon
SK-MEL-2 melanoma = tested on: SK-MEL-2 melanoma
HT29 colon = tested on: HT29 colon
CCRF-CEM leukemia = tested on: CCRF-CEM leukemia
MALME-3M melanoma = tested on: MALME-3M melanoma
786-0 renal = tested on: 786-0 renal
OVCAR-8 ovarian = tested on: OVCAR-8 ovarian
MCF7 breast = tested on: MCF7 breast
SF-268 CNS = tested on: SF-268 CNS
NCI-H226 lung = tested on: NCI-H226 lung
MDA-MB-435 = tested on: MDA-MB-435
SNB-75 CNS = tested on: SNB-75 CNS

For CCCCCCOc1ccc(/C=N/NC(N)=S)cc1, which TGI (HOP-92 NSCLC) is on record?
Its TGI is 27.4 µM.

What about the GI50 (MDA-MB-231 breast) of the same compound?
Its GI50 is 1.67 µM.

And the TGI (MDA-MB-231 breast)?
Its TGI is 17.1 µM.

And the GI50 (LOX IMVI melanoma)?
The GI50 was 3.78 µM.

And the TGI (LOX IMVI melanoma)?
Its TGI is 21.1 µM.

And the GI50 (SF-539 CNS)?
The GI50 was 2.38 µM.

What about the TGI (SF-539 CNS) of the same compound?
Its TGI is 6.06 µM.

What about the GI50 (RPMI-8226 leukemia) of the same compound?
Its GI50 is 1.36 µM.

What about the TGI (RPMI-8226 leukemia) of the same compound?
The TGI was 4.41 µM.

And the GI50 (SR leukemia)?
The GI50 was 4.22 µM.

And the TGI (SR leukemia)?
Its TGI is over 100 µM.

What about the GI50 (UO-31 renal) of the same compound?
The GI50 was 0.822 µM.

What about the TGI (UO-31 renal) of the same compound?
Its TGI is 3.66 µM.

And the GI50 (SW-620 colon)?
Its GI50 is 1.99 µM.

And the TGI (SW-620 colon)?
Its TGI is 20.5 µM.

And the GI50 (M14 melanoma)?
Its GI50 is 2.54 µM.

What about the TGI (M14 melanoma) of the same compound?
The TGI was 12.1 µM.

And the GI50 (KM12 colon)?
The GI50 was 3.09 µM.

And the TGI (KM12 colon)?
The TGI was 13.6 µM.

What about the GI50 (NCI/ADR-RES ovarian) of the same compound?
Its GI50 is 3.4 µM.

And the TGI (NCI/ADR-RES ovarian)?
The TGI was 18.3 µM.

And the GI50 (ACHN renal)?
Its GI50 is 5.89 µM.

And the TGI (ACHN renal)?
Its TGI is over 100 µM.

What about the GI50 (HS 578T breast) of the same compound?
Its GI50 is 3.16 µM.

And the TGI (HS 578T breast)?
The TGI was 15 µM.

And the GI50 (SK-OV-3 ovarian)?
Its GI50 is 27.2 µM.

What about the TGI (SK-OV-3 ovarian) of the same compound?
Its TGI is over 100 µM.

What about the GI50 (UACC-62 melanoma) of the same compound?
The GI50 was 2.58 µM.

And the TGI (UACC-62 melanoma)?
The TGI was 10.3 µM.

And the GI50 (A498 renal)?
The GI50 was 16.8 µM.

What about the TGI (A498 renal) of the same compound?
Its TGI is 32.3 µM.

What about the GI50 (BT-549 breast) of the same compound?
Its GI50 is 2.79 µM.

What about the TGI (BT-549 breast) of the same compound?
Its TGI is 9.15 µM.

What about the GI50 (HCT-15 colon) of the same compound?
Its GI50 is 2.69 µM.

And the TGI (HCT-15 colon)?
The TGI was over 100 µM.

What about the GI50 (SK-MEL-2 melanoma) of the same compound?
The GI50 was 6.95 µM.

And the TGI (SK-MEL-2 melanoma)?
Its TGI is over 49.9 µM.

And the GI50 (HT29 colon)?
Its GI50 is 3.21 µM.

What about the TGI (HT29 colon) of the same compound?
The TGI was over 100 µM.

And the GI50 (CCRF-CEM leukemia)?
The GI50 was 0.605 µM.

What about the TGI (CCRF-CEM leukemia) of the same compound?
The TGI was 7.69 µM.

And the GI50 (MALME-3M melanoma)?
Its GI50 is 2.74 µM.

And the TGI (MALME-3M melanoma)?
Its TGI is 7.82 µM.

What about the GI50 (786-0 renal) of the same compound?
The GI50 was 1.74 µM.

And the TGI (786-0 renal)?
The TGI was 6.05 µM.

And the GI50 (OVCAR-8 ovarian)?
Its GI50 is 7.69 µM.

And the TGI (OVCAR-8 ovarian)?
The TGI was over 100 µM.

And the GI50 (MCF7 breast)?
Its GI50 is 6.74 µM.

And the TGI (MCF7 breast)?
Its TGI is 34.3 µM.

What about the GI50 (SF-268 CNS) of the same compound?
The GI50 was 3.31 µM.

And the TGI (SF-268 CNS)?
Its TGI is 41.8 µM.

And the GI50 (NCI-H226 lung)?
The GI50 was 3.65 µM.

What about the TGI (NCI-H226 lung) of the same compound?
The TGI was 16.5 µM.

What about the GI50 (MDA-MB-435) of the same compound?
The GI50 was 1.84 µM.

What about the TGI (MDA-MB-435) of the same compound?
Its TGI is 7.56 µM.

And the GI50 (SNB-75 CNS)?
The GI50 was 4.74 µM.

What about the TGI (SNB-75 CNS) of the same compound?
Its TGI is 25.6 µM.
